Data as given in US20250230193A1, “CYCLIC COMPOUND HAVING SELECTIVE KRAS INHIBITORY EFFECT ON HRAS AND NRAS” (CHUGAI SEIYAKU KABUSHIKI KAISHA, priority 2022, published 2025).
Where a SMILES comes first, the peptide text is derived from it. Bridges are numbered along the chain shown (N, C = ends). [ ]: non-standard residue; d: D form. The star is where a group is joined. hPhe(3,5-F2-4-CF3) = N[C@@H](CCc1cc(F)c(C(F)(F)F)c(F)c1)C(=O)O; hPhe(3-Cl-4-CF3) = N[C@@H](CCc1ccc(C(F)(F)F)c(Cl)c1)C(=O)O; NPrPhe(4-CF3) = CCCN[C@@H](Cc1ccc(C(F)(F)F)cc1)C(=O)O; NMeGly(cPent) = CN[C@H](C(=O)O)C1CCCC1; αMeI = CC[C@H](C)[C@](C)(N)C(=O)O; Hyp = O=C(O)[C@@H]1C[C@@H](O)CN1; NMeD = CN[C@@H](CC(=O)O)C(=O)O; Ac4c(3-oxa) = NC1(C(=O)O)COC1; NMeL = CN[C@@H](CC(C)C)C(=O)O; Morpholide = C1CN(*)CCO1; Aze = O=C(O)[C@@H]1CCN1; Ac4c = NC1(C(=O)O)CCC1; NEtG = CCNCC(=O)O; Sar = CNCC(=O)O

Tests used:
[1] = molecular target: GDP-bound NRAS wild-type protein (Homo sapiens, UniProt P01111); assay: Binding to NRAS by surface plasmon resonance (SPR), Single Cycle Kinetics; settings: SPR; for NRAS/KRAS (ratio of KD value for NRAS to KD value for KRAS) / NRAS/KRAS (ratio of KD value with respect to NRAS to KD value with respect to KRAS): GDP-bound NRAS wild-type vs GDP-bound KRAS wild-type
GDP-bound NRAS wild-type protein, sequence (P01111 whole entry): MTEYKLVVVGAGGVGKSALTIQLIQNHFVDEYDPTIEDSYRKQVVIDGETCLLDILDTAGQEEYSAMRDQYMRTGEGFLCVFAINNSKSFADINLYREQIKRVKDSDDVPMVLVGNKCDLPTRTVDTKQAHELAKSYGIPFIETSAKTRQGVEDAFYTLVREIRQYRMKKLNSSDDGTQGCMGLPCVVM

[2] = molecular target: GDP-bound HRAS wild-type protein (Homo sapiens, UniProt P01112); assay: Binding to HRAS by surface plasmon resonance (SPR), Single Cycle Kinetics; settings: SPR; for HRAS/KRAS (ratio of KD value for HRAS to KD value for KRAS) / HRAS/KRAS (ratio of KD value with respect to HRAS to KD value with respect to KRAS): GDP-bound HRAS wild-type vs GDP-bound KRAS wild-type
GDP-bound HRAS wild-type protein, sequence (P01112 whole entry): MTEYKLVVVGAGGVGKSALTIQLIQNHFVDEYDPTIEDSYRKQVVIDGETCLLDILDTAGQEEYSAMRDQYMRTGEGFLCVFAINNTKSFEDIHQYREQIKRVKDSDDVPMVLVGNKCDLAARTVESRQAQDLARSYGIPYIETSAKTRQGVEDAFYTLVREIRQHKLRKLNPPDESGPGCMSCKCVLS

## CCCN1C(=O)CN(C)C(=O)[C@@H]2CCN2C(=O)[C@H]([C@@H](C)CC)NC(=O)[C@H](CC(C)C)N(C)C(=O)C[C@@H](C(=O)N2CCOCC2)N(C)C(=O)[C@H](C2CCCC2)N(C)C(=O)C2(COC2)NC(=O)[C@@H]2CCCN2C(=O)[C@H](CCc2cc(F)c(C(F)(F)F)c(F)c2)NC(=O)CN(C)C(=O)[C@@H]1Cc1ccc(C(F)(F)F)cc1 [PP0782] ([NMeL]I[Aze][Sar][NPrPhe(4-CF3)][Sar][hPhe(3,5-F2-4-CF3)]P[Ac4c(3-oxa)][NMeGly(cPent)][NMeD]-Morpholide; lactam N-11)
[1]; KD ratio NRAS/KRAS
  NRAS/KRAS (ratio of KD value with respect to GDP-bound NRAS wild-type protein to KD value with respect to KRAS): B (a compound having 3 or more and less than 10 is denoted as B)
[2]; KD ratio HRAS/KRAS
  HRAS/KRAS (ratio of KD value with respect to GDP-bound HRAS wild-type protein to KD value with respect to KRAS): B (a compound having 3 or more and less than 10 is denoted as B)

## CCCN(C)C(=O)[C@@H]1CC(=O)N(C)[C@@H](CC(F)F)C(=O)N[C@@H]([C@@H](C)CC)C(=O)N(C)CC(=O)N(C)[C@H]2C/C=C\CCN(C2=O)[C@@H](Cc2ccc(C(F)(F)F)cc2)C(=O)N(C)CC(=O)N[C@@H](CCc2cc(F)c(C(F)(F)F)c(F)c2)C(=O)N2C[C@H](OCC)C[C@H]2C(=O)NC2(CCC2)C(=O)N(C)[C@@H](C2CCCC2)C(=O)N1C [PP1700]
[1]
  NRAS/KRAS (ratio of KD value for NRAS to KD value for KRAS): A (a compound having 10 or more and less than 20 is denoted as A)
[2]
  HRAS/KRAS (ratio of KD value for HRAS to KD value for KRAS): A (a compound having 10 or more and less than 20 is denoted as A)

## CC[C@H](C)[C@@H]1NC(=O)[C@H](CC(C)C)N(C)C(=O)C[C@@H](C(=O)N2CCCCC2)N(C)C(=O)[C@H](C2CCCC2)N(C)C(=O)C2(CCCC2)NC(=O)[C@@H]2CCCN2C(=O)[C@H](CCc2cc(F)c(C(F)(F)F)c(F)c2)NC(=O)CN(C)C(=O)[C@H](Cc2ccc(C(F)(F)F)cc2)N2CCCC[C@@H](C2=O)N(C)C(=O)CN(C)C1=O [PP0572]
[1]; KD ratio NRAS/KRAS
  NRAS/KRAS (ratio of KD value with respect to GDP-bound NRAS wild-type protein to KD value with respect to KRAS): B (a compound having 3 or more and less than 10 is denoted as B)
[2]; KD ratio HRAS/KRAS
  HRAS/KRAS (ratio of KD value with respect to GDP-bound HRAS wild-type protein to KD value with respect to KRAS): B (a compound having 3 or more and less than 10 is denoted as B)

## CCO[C@@H]1C[C@H]2C(=O)NC3(CC(C)(C)C3)C(=O)N(C)[C@@H](C(CC)CC)C(=O)N(C)[C@H](C(=O)N3CCCC3)CC(=O)N(C)[C@@H](COC)C(=O)N[C@@H]([C@@H](C)CC)C(=O)N(C)CC(=O)N(C)[C@H]3C/C=C\CCN(C3=O)[C@@H](Cc3ccc(C(F)(F)F)cc3)C(=O)N(C)CC(=O)N[C@@H](CCc3cc(F)c(C(F)(F)F)c(F)c3)C(=O)N2C1 [PP2123]
[1]
  NRAS/KRAS (ratio of KD value with respect to NRAS to KD value with respect to KRAS): A (a compound having 10 or more and less than 20 is denoted as A)
[2]
  HRAS/KRAS (ratio of KD value with respect to HRAS to KD value with respect to KRAS): A (a compound having 10 or more and less than 20 is denoted as A)

## CCC[C@H]1C(=O)N[C@@H]([C@@H](C)CC)C(=O)N(C)CC(=O)N(C)[C@H]2C/C=C\CCN(C2=O)[C@@H](Cc2ccc(C)cc2)C(=O)N(C)CC(=O)N[C@@H](CCc2cc(F)c(C(F)(F)F)c(F)c2)C(=O)N2CC3(CC3)C[C@H]2C(=O)NC2(CC(C)(C)C2)C(=O)N(C)[C@@H](CC(C)(C)C)C(=O)N(C)[C@H](C(=O)N(C)C)CC(=O)N1C [PP2997]
[1]; KD ratio NRAS/KRAS, GDP-bound wild-type proteins
  NRAS/KRAS (ratio of KD value with respect to GDP-bound NRAS wild-type protein to KD value with respect to KRAS): A (a compound having 10 or more and less than 20 is denoted as A)
[2]; KD ratio HRAS/KRAS, GDP-bound wild-type proteins
  HRAS/KRAS (ratio of KD value with respect to GDP-bound HRAS wild-type protein to KD value with respect to KRAS): B (a compound having 3 or more and less than 10 is denoted as B)

## CCCN1C(=O)CN(C)C(=O)[C@@H]2CCN2C(=O)[C@H]([C@@H](C)CC)NC(=O)[C@H](CC(C)C)N(C)C(=O)C[C@@H](C(=O)N2CCOCC2)N(C)C(=O)[C@H](C2CCCC2)N(C)C(=O)[C@](C)([C@@H](C)CC)NC(=O)[C@@H]2CCCN2C(=O)[C@H](CCc2cc(F)c(C(F)(F)F)c(F)c2)NC(=O)CN(C)C(=O)[C@@H]1Cc1ccc(C(F)(F)F)cc1 [PP0774] ([NMeL]I[Aze][Sar][NPrPhe(4-CF3)][Sar][hPhe(3,5-F2-4-CF3)]P[αMeI][NMeGly(cPent)][NMeD]-Morpholide; lactam N-11)
[1]; KD ratio NRAS/KRAS
  NRAS/KRAS (ratio of KD value with respect to GDP-bound NRAS wild-type protein to KD value with respect to KRAS): B (a compound having 3 or more and less than 10 is denoted as B)
[2]; KD ratio HRAS/KRAS
  HRAS/KRAS (ratio of KD value with respect to GDP-bound HRAS wild-type protein to KD value with respect to KRAS): B (a compound having 3 or more and less than 10 is denoted as B)

## CC[C@H](C)[C@@H]1NC(=O)[C@H](CC2CC2)N(C)C(=O)C[C@@H](C(=O)N(C)C)N(C)C(=O)[C@H](C2CCCC2)N(C)C(=O)C2(CC(C)(C)C2)NC(=O)[C@@H]2C[C@H](C)CN2C(=O)[C@H](CCc2ccc(C(F)(F)F)c(OC)c2)NC(=O)CN(C)C(=O)[C@H](Cc2ccc(C)cc2)N2CC/C=C\C[C@@H](C2=O)N(C)C(=O)CN(C)C1=O [PP1898]
[1]
  NRAS/KRAS (ratio of KD value for NRAS to KD value for KRAS): B (a compound having 3 or more and less than 10 is denoted as B)
[2]
  HRAS/KRAS (ratio of KD value for HRAS to KD value for KRAS): B (a compound having 3 or more and less than 10 is denoted as B)

## CCCN(C)C(=O)[C@@H]1CC(=O)N(C)[C@@H](COCC)C(=O)N[C@@H]([C@@H](C)CC)C(=O)N(C)CC(=O)N(C)[C@H]2C/C=C\CCN(C2=O)[C@@H](Cc2ccc(C(F)(F)F)cc2)C(=O)N(C)CC(=O)N[C@@H](CCc2cc(F)c(C(F)(F)F)c(F)c2)C(=O)N2C[C@H](OCC)C[C@H]2C(=O)NC2(CC(C)(C)C2)C(=O)N(C)[C@@H](C2CCCC2)C(=O)N1C [PP2031]
[1]
  NRAS/KRAS (ratio of KD value for NRAS to KD value for KRAS): B (a compound having 3 or more and less than 10 is denoted as B)
[2]
  HRAS/KRAS (ratio of KD value for HRAS to KD value for KRAS): B (a compound having 3 or more and less than 10 is denoted as B)

## CCCN1C(=O)CN(C)C(=O)CN(CC)C(=O)[C@H]([C@@H](C)CC)NC(=O)[C@H](CC(C)C)N(C)C(=O)C[C@@H](C(=O)N(C)C)NC(=O)[C@H](C2CCCC2)N(C)C(=O)C2(CCC2)NC(=O)[C@@H]2C[C@@H](OCC)CN2C(=O)[C@H](CCc2ccc(C(F)(F)F)c(Cl)c2)NC(=O)CN(C)C(=O)[C@@H]1Cc1ccc(C(F)(F)F)cc1 [PP0372] ([NMeL]I[NEtG][Sar][NPrPhe(4-CF3)][Sar][hPhe(3-Cl-4-CF3)][Hyp](Et)[Ac4c][NMeGly(cPent)]D-NMe2; lactam N-11)
[1]; KD ratio NRAS/KRAS
  NRAS/KRAS (ratio of KD for GDP-bound NRAS wild-type to KD for KRAS): B (a compound having 3 or more and less than 10 is denoted as B)
[2]; KD ratio HRAS/KRAS
  HRAS/KRAS (ratio of KD for GDP-bound HRAS wild-type to KD for KRAS): B (a compound having 3 or more and less than 10 is denoted as B)

## CC[C@H](C)[C@@H]1NC(=O)[C@H](CC2CC2)N(C)C(=O)C[C@@H](C(=O)N(C)CC)N(C)C(=O)[C@H](C2CCCC2)N(C)C(=O)C2(CCC2)NC(=O)[C@@H]2C[C@H](C)CN2C(=O)[C@H](CCc2cc(F)c(C(F)(F)F)c(F)c2)NC(=O)CN(C)C(=O)[C@H](Cc2ccc(C(F)(F)F)cc2)N2CC/C=C\C[C@@H](C2=O)N(C)C(=O)CN(C)C1=O [PP1537]
[1]; KD ratio class
  NRAS/KRAS (ratio of KD value for GDP-bound NRAS wild-type protein to KD value for KRAS): AA (a compound having 20 or more is denoted as AA)
[2]; KD ratio class
  HRAS/KRAS (ratio of KD value for GDP-bound HRAS wild-type protein to KD value for KRAS): A (a compound having 10 or more and less than 20 is denoted as A)

## CCCOC[C@H]1C(=O)N[C@@H]([C@@H](C)CC)C(=O)N2CCC[C@H]2C(=O)N(C)[C@H]2C/C=C\CCN(C2=O)[C@@H](Cc2ccc(C)cc2)C(=O)N(C)CC(=O)N[C@@H](CCc2ccc(C(F)(F)F)c(OC)c2)C(=O)N2C[C@@H](C)C[C@H]2C(=O)NC2(CC(C)(C)C2)C(=O)N(C)[C@@H](C2CCCC2)C(=O)N(C)[C@H](C(=O)N(C)CC)CC(=O)N1C [PP2429]
[1]
  NRAS/KRAS (ratio of KD value with respect to NRAS to KD value with respect to KRAS): A (a compound having 10 or more and less than 20 is denoted as A)
[2]
  HRAS/KRAS (ratio of KD value with respect to HRAS to KD value with respect to KRAS): B (a compound having 3 or more and less than 10 is denoted as B)
